Where two headings read alike, the source gives them in different places.
Tests used:
[1] = biological target: T1, human muscarinic M1 receptor (Homo sapiens, UniProt P11229); assay: Alphascreen Surefire phospho-ERK1/2 functional assay, M1; type: cell-based; conditions: for % Emax cf. ACh, M1 / Emax: Emax relative to ACh; for EC50: phospho-ERK1/2; for Emax: CHO, read-out: % Emax cf. ACh, M1, CHO cells stably expressing human M1
T1 sequence (P11229 1-460): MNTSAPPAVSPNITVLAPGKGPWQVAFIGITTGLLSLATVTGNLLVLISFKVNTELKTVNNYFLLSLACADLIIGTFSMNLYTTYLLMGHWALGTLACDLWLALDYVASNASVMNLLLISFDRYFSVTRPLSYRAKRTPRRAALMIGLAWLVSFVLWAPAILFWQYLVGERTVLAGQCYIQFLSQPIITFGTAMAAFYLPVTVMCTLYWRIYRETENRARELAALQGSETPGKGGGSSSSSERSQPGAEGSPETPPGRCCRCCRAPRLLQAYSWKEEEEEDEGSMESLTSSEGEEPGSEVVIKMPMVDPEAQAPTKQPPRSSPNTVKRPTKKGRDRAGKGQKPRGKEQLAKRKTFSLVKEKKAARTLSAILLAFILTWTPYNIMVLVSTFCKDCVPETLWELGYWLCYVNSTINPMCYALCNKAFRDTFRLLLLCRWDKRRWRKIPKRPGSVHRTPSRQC
Protocol: (§1) Functional assays were performed using the Alphascreen Surefire phospho-ERK1/2 assay (Crouch & Osmond, Comb. Chem. High Throughput Screen, 2008). ERK1/2 phosphorylation is a downstream consequence of both Gq/11 and Gi/o protein coupled receptor activation, making it highly suitable for the assessment of M1, M3 (Gq/11 coupled) and M2, M4 receptors (Gi/o coupled), rather than using different assay formats for different receptor subtypes. CHO cells stably expressing the human muscarinic M1, M2, M3 or M4 receptor were plated (25K/well) onto 96-well tissue culture plates in MEM-alpha+10% dialysed FBS. Once adhered, cells were serum-starved overnight. Agonist stimulation was performed by the addition of 5 μL agonist to the cells for 5 min (37° C.). Media was removed and 50 μL of lysis buffer added. After 15 min, a 4 μL sample was transferred to 384-well plate and 7 μL of detection mixture added.
For the vast majority of examples at least two diastereomers exist and these have been separated, unless otherwise stated, using the techniques of reversed phase HPLC, chiral HPLC or chiral SFC. Isomer assignment (Isomer 1, Isomer 2, etc.) is based on the retention time of the compound using the separation technique that was performed in the final purification step. By implication, this could be reversed phase HPLC, chiral HPLC or chiral SFC retention time, and this will vary from compound to compound.

[2] = biological target: T2, human muscarinic M4 receptor (Homo sapiens, UniProt P08173); assay: Alphascreen Surefire phospho-ERK1/2 functional assay, M4; type: cell-based; conditions: for Emax: CHO, read-out: % Emax cf. ACh, M4, CHO cells stably expressing human M4; for Emax / % Emax cf. ACh, M4: Emax relative to ACh; for EC50: phospho-ERK1/2
T2 sequence (P08173 1-479): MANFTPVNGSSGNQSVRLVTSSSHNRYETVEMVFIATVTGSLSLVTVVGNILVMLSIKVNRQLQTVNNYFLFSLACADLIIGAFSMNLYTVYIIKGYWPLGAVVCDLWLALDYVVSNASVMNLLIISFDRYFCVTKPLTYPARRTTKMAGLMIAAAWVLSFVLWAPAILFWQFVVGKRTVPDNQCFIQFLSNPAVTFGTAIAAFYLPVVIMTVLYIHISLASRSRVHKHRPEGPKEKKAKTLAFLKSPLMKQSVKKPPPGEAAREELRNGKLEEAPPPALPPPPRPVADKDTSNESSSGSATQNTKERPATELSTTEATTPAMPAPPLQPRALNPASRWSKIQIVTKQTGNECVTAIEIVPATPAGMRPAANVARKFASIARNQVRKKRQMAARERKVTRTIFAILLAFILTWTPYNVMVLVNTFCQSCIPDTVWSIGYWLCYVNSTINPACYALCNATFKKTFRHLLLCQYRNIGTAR
Protocol: as §1, with “ERK1/2” for “Functional assays were performed using the Alphascreen Surefire phospho-ERK1/2 assay (Crouch & Osmond, Comb. Chem. High Throughput Screen, 2008). ERK1/2”
Isomer assignment (Isomer 1, Isomer 2, etc.) is based on the retention time of the compound using the separation technique that was performed in the final purification step. By implication, this could be reversed phase HPLC, chiral HPLC or chiral SFC retention time, and this will vary from compound to compound.

[3] = pEC50 M1, CHO cells stably expressing human M1
[4] = pEC50 M4, CHO cells stably expressing human M4
[5] = CHO cells stably expressing human M1, read-out: pEC50 M1 (converted)
[6] = CHO cells stably expressing human M4, read-out: pEC50 M4 (converted)

Row | SMILES | EC50 [1, 3] [nM] | Emax [2] [%] | EC50 [2, 4] [nM] | EC50 [1, 5] [nM] | Emax [1] [%] | EC50 [2, 6] [nM] | other results
1 | CCOC(=O)N1C2COCC1CC(N1CCC3(CC1)CNC(=O)C3)C2 (single isomer, unassigned) [Example 5-2 Isomer 1, Ethyl 7-(3-oxo-2,8-diazaspiro[4.5]dec-8-yl)-3-oxa-9-azabicyclo[3.3.1]nonane-9-carboxylate] | 316 | 36 | 302 | – | – | – | % Emax cf. ACh, M1 ([1]; CHO cells stably expressing human M1, listed as 5-2 Isomer 1): 82%
2 | CCOC(=O)N1C2COCC1CC(N1CCC3(CC1)CNC(=O)O3)C2 (single isomer, unassigned) [Example 5-3 Isomer 1, Ethyl 7-(2-oxo-1-oxa-3,8-diazaspiro[4.5]dec-8-yl)-3-oxa-9-azabicyclo[3.3.1]nonane-9-carboxylate] | – | 33 | – | 1450 | 75 | 832 | –
3 | CCOC(=O)N1C2COCC1CC(N1CCC(N(CC(C)(C)C)C(C)=O)CC1)C2 (single isomer, unassigned) [Example 6-2 Isomer 1, Ethyl 7-{4-[acetyl(2,2-dimethylpropyl)amino]piperidin-1-yl}-3-oxa-9-azabicyclo[3.3.1]nonane-9-carboxylate] | – | 45 | – | 617 | 71 | 1050 | –
4 | CCOC(=O)N1C2COCC1CC(N1CCC(c3cccc(OC)n3)CC1)C2 (single isomer, unassigned) [Example 2-1 Isomer 1, Ethyl 7-[4-(6-methoxypyridin-2-yl)piperidin-1-yl]-3-oxa-9-azabicyclo[3.3.1]nonane-9-carboxylate] | – | 17 | – | 251 | 44 | > 20000 | –
5 | COC(=O)N1C2COCC1CC(N1CCC(N(Cc3ccccc3)C(C)=O)CC1)C2 (single isomer, unassigned) [Example 8-2 Isomer 2, Methyl 7-(4-(N-benzylacetamido)piperidin-1-yl)-3-oxa-9-azabicyclo[3.3.1]nonane-9-carboxylate] | 603 | – | > 20000 | – | – | – | % Emax cf. ACh, M1 ([1]; CHO cells stably expressing human M1, listed as 8-2 Isomer 2): 60%; % Emax cf. ACh, M4 ([2]; CHO cells stably expressing human M4, listed as 8-2 Isomer 2): 27%
6 | CCOC(=O)N1C2COCC1CC(N1CCC(C(=O)N3CCCCCC3)CC1)C2 (single isomer, unassigned) [Example 7-4 Isomer 1, Ethyl 7-[4-(azepan-1-ylcarbonyl)piperidin-1-yl]-3-oxa-9-azabicyclo[3.3.1]nonane-9-carboxylate] | – | 65 | – | 550 | 85 | > 20000 | –
7 | CCOC(=O)N1C2COCC1CC(N1CCC3(CC1)OC(=O)NC3CC)C2 (single isomer, unassigned) [Example 5-4 Isomer 1b, Ethyl 7-(4-ethyl-2-oxo-1-oxa-3,8-diazaspiro[4.5]dec-8-yl)-3-oxa-9-azabicyclo[3.3.1]nonane-9-carboxylate] | > 20000 | – | 316 | – | – | – | % Emax cf. ACh, M1 ([1]; CHO cells stably expressing human M1, listed as 5-4 Isomer 1b): 9%; % Emax cf. ACh, M4 ([2]; CHO cells stably expressing human M4, listed as 5-4 Isomer 1b): 30%
8 | CCOC(=O)N1C2COCC1CC(N1CCC(C#N)(c3ccccn3)CC1)C2 (single isomer, unassigned) [Example 3-1 Isomer 1, Ethyl 7-[4-cyano-4-(pyridin-2-yl)piperidin-1-yl]-3-oxa-9-azabicyclo[3.3.1]nonane-9-carboxylate] | – | 94 | – | 1380 | 97 | 129 | –
9 | COC(=O)N1C2COCC1CC(N1CCC(N(CC3(C)CCC3)C(C)=O)CC1)C2 (single isomer, unassigned) [Example 8-1 Isomer 1, Methyl 7-(4-(N-((1-methylcyclobutyl)methyl)acetamido)piperidin-1-yl)-3-oxa-9-azabicyclo[3.3.1]nonane-9-carboxylate] | 85.1 | – | 155 | – | – | – | % Emax cf. ACh, M1 ([1]; CHO cells stably expressing human M1, listed as 8-1 Isomer 1): 123%; % Emax cf. ACh, M4 ([2]; CHO cells stably expressing human M4, listed as 8-1 Isomer 1): 77%
10 | COC(=O)N1C2COCC1CC(N1CCC(N(CC3(C)CCC3)C(C)=O)CC1)C2 (single isomer, unassigned) [Example 8-1 Isomer 2, Methyl 7-(4-(N-((1-methylcyclobutyl)methyl)acetamido)piperidin-1-yl)-3-oxa-9-azabicyclo[3.3.1]nonane-9-carboxylate] | 234 | – | 575 | – | – | – | % Emax cf. ACh, M1 ([1]; CHO cells stably expressing human M1, listed as 8-1 Isomer 2): 86%; % Emax cf. ACh, M4 ([2]; CHO cells stably expressing human M4, listed as 8-1 Isomer 2): 47%
11 | CCOC(=O)N1C2COCC1CC(N1CCC3(CC1)OC(=O)NC3CC)C2 (single isomer, unassigned) [Example 5-4 Isomer 2a, Ethyl 7-(4-ethyl-2-oxo-1-oxa-3,8-diazaspiro[4.5]dec-8-yl)-3-oxa-9-azabicyclo[3.3.1]nonane-9-carboxylate] | 977 | – | 200 | – | – | – | % Emax cf. ACh, M1 ([1]; CHO cells stably expressing human M1, listed as 5-4 Isomer 2a): 75%; % Emax cf. ACh, M4 ([2]; CHO cells stably expressing human M4, listed as 5-4 Isomer 2a): 61%
12 | CCOC(=O)N1C2COCC1CC(N1CCC(c3cccc(OC)n3)CC1)C2 (single isomer, unassigned) [Example 2-1 Isomer 2, Ethyl 7-[4-(6-methoxypyridin-2-yl)piperidin-1-yl]-3-oxa-9-azabicyclo[3.3.1]nonane-9-carboxylate] | – | – | – | 158 | – | – | % Emax cf. ACh, M1 ([1]; CHO cells stably expressing human M1): 40%; % Emax cf. ACh, M4 ([2]; CHO cells stably expressing human M4): 20%
13 | COC(=O)N1C2COCC1CC(N1CCC(N(Cc3ccccc3)C(C)=O)CC1)C2 (single isomer, unassigned) [Example 8-2 Isomer 1, Methyl 7-(4-(N-benzylacetamido)piperidin-1-yl)-3-oxa-9-azabicyclo[3.3.1]nonane-9-carboxylate] | 79.4 | – | 661 | – | – | – | % Emax cf. ACh, M1 ([1]; CHO cells stably expressing human M1, listed as 8-2 Isomer 1): 99%; % Emax cf. ACh, M4 ([2]; CHO cells stably expressing human M4, listed as 8-2 Isomer 1): 54%
14 | CCOC(=O)N1C2COCC1CC(N1CCC(C(=O)NC3(C)CCC3)CC1)C2 (single isomer, unassigned) [Example 7-1 Isomer 1, Ethyl 7-{4-[(1-methylcyclobutyl)carbamoyl]piperidin-1-yl}-3-oxa-9-azabicyclo[3.3.1]nonane-9-carboxylate] | – | – | – | 380 | – | 324 | % Emax cf. ACh, M1 ([1]; CHO cells stably expressing human M1, listed as 7-1 Isomer 1): 91%; % Emax cf. ACh, M4 ([2]; CHO cells stably expressing human M4, listed as 7-1 Isomer 1): 76%
